Measured values reported in article PMC9845330 (Communications Biology, 2023).
Non-standard residues stand in square brackets, D forms with d. Residues, ends and D or L forms follow the SMILES beside them. *: point of attachment. X1 = O=C(CCCC[C@@H]1SC[C@@H]2NC(=O)N[C@@H]21)NCCCOCCOCCOCCCN*; PEG12 = NCCOCCOCCOCCOCCOCCOCCOCCOCCOCCOCCOCCOCCC(=O)O

Experiments:
H1299 cells = assay: Cell internalization by flow cytometry, absolute uptake (molecules per cell) of peptide-streptavidin-Alexa Fluor 647; type: cell-based, human; conditions: for Molecules Internalized Per Cell: Average
Text: Optimizing MGS4 as a monomer is efficient but the optimal valency of the truncated peptide may be different than that of the full-length peptide. The peptide was synthesized as a monomer (MGS4_V8), dimer (MGS4_V9), and tetramer (MGS4_V10). To obtain quantitative data, we moved from measuring the relative fluorescence of dye-labeled peptide to the determination of the average number of dye molecules internalized per cell. […] The dimer MGS4_V9 has an EC50 7-fold lower indicating there is a synergistic effect in going from a monomer to a dimer (Fig. 2a and Table 2). However, there is only a 2-fold decrease in going from a dimer to a tetrameric peptide (MGS4_V10). We also calculated the EC50 on three other NSCLC cell lines (Table 2 and Supplementary Figure 3). […] The average number of peptides internalized per cell at saturating conditions varies, with H1993 cells internalizing the highest number of peptides at all three valencies (Table 2). This is likely due to differing levels of receptor expression on the cell type. The average molecules internalized at 50 nM in one hour follows the same trend (Fig. 2b).
Non-internalized peptide was removed, and the mean number of peptides internalized per cell was determined to calculate the EC50. Individual measurements are shown. The mean is shown as an “X”. Error bars, in black, represent standard error measurements and are below the height of the symbols in some cases. b The average number of peptide molecules per cell at 50 nM at 1 h was determined on four NSCLC cell lines and one normal human bronchial epithelial cell line (HBEC). Error bars represent SEM and individual data points are shown. c H1299 cells were incubated with 50 nM peptide-Streptavidin-Qdot605 for 1 h, removed, and replaced with normal growth media. After 24 h, cells were fixed, and counterstained with DAPI (blue). Representative maximally projected z-stacks for each group reveal no apparent difference in peptide internalization or localization. The scale bar represents 10 µm.
Biotinylated peptide was conjugated to streptavidin-R-phycoerythrin or streptavidin-Alexa Fluor 647 (1:1 molar ratio) for 30 min. The open binding sites on streptavidin were quenched with RPMI 1640 and diluted to the indicated concentration. Tumor cells were grown to 90% confluency in a 12 well plate, then incubated with 500 µl peptide-dye conjugate at 37 °C. After 1 h, peptide was removed, and the cells were washed 3x with PBS (137 mM NaCl, 2.7 mM KCl, 10 mM Na2HPO4, 1.8 mM KH2PO4, pH 7.4), 2x with 0.1 M HCl-glycine pH2.2 in 0.9% NaCl, and 1x PBS rinse. Cells were removed by trypsinization. Flow cytometry was performed on a BD FACSCelesta, and data were analyzed on Flowing software. Cells were gated based on the forward and side scatter to include only viable cells and a minimum of 10,000 events were counted. A region containing <5% of the cells in the negative control was established, and relative peptide uptake by the mean fluorescence intensity of that population. For absolute peptide uptake per cell, a standard curve was generated using Quantum™ Alexa Fluor 647 microspheres (Bangs Laboratory, Fishers, IN). A representative linear regression showing the correlation of molecule equivalents soluble fluorophores (MESF) vs the mean fluorescence intensity (MFI) is shown in Supplemental Figure 6. Cells were gated based on the forward and side scatter to include only viable cells and a minimum of 10,000 events were counted. MFI was determined at 50% at peak height. Molecules internalized per cell were determined by the standard curve relating MESF to MFI and divided by the number dye molecules/MGS conjugate. An example is shown in supplemental Figure 7. GraphPad Prism® was used for non-linear regression curve fitting to calculate an EC50. Parameters and statistical analysis are provided (Supplementary Tables 2–6). Experiments were repeated a minimum of three times. […]

HBEC cells = assay: In vitro saporin delivery, cell viability (CellTiter-GLO); type: cell-based, human; conditions: saporin conjugate, 6 h exposure, viability at 72 h
Description: The ability of MGS4_V8-saporin conjugate to induce cell death was determined.
Biotinylated peptide was conjugated to streptavidin-saporin (Advanced Targeting Systems Bio, San Diego, CA) in a 1:1 molar ratio. Increasing doses of peptide-drug conjugate in triplicate were incubated on the cells for 6 h at 37 °C. The drug was removed and replaced with complete growth media. After 72 h, cell viability was measured using CellTiter-GLO® (Promega, Madison, WI). Cell viability was normalized to untreated cells. IC50s were calculated using GraphPad Prism® using log(agonist) vs. response–Variable slope (four parameters). […]
M GS4_V4 (non-acetylated, panel a) and M GS4_V8 (acetylated, panel b ) were incubated in 100% human serum for 0 and 48-hours. Serum proteins were precipitated, and the peptide was analyzed by analytical
HPLC. The mass of the peptide and degradation products were determined by MALDI MS and are […]
MGS4_V8, MGS4_V9, or MGS4_V10 were conjugated with streptavidin-Alexa Fluor 650 and were incubated with the indicated cell line for 1 hour. Non-internalized peptide was rem ov ed, and the mean number of peptides internalized per cell was determined to calculate the EC50. […]
Supplemental Figure 4 : Peptide-Streptavidin conjugates are nontoxic to cells. a. […] After 72 hours, viability was measured. […]

Compound: CC(=O)N[C@@H](Cc1ccccc1)C(=O)N[C@@H](Cc1c[nH]cn1)C(=O)N[C@@H](C)C(=O)N[C@H](C(=O)N1CCC[C@H]1C(=O)N[C@@H](CCC(N)=O)C(=O)N[C@@H](CO)C(=O)N[C@@H](Cc1ccccc1)C(=O)N[C@@H](Cc1ccc(O)cc1)C(=O)N[C@H](C(=O)NCCOCCOCCOCCOCCOCCOCCOCCOCCOCCOCCOCCOCCC(=O)N[C@@H](CCC(=O)NCCCOCCOCCOCCCNC(=O)CCCC[C@@H]1SC[C@@H]2NC(=O)N[C@@H]21)C(N)=O)[C@@H](C)O)C(C)C [MGS4_V8] (Ac-FHAVPQSFYT[PEG12]E(X1)-NH2)
- Molecules Internalized Per Cell (H1299 cells; 0.01 nM): 0
- Molecules Internalized Per Cell (H1299 cells; 1 nM): 88
- Molecules Internalized Per Cell (H1299 cells; 10 nM): 3648
- Molecules Internalized Per Cell (H1299 cells; 20 nM): 3316
- Molecules Internalized Per Cell (H1299 cells; 30 nM): 10700
- Molecules Internalized Per Cell (H1299 cells; 40 nM): 21020
- Molecules Internalized Per Cell (H1299 cells; 50 nM): 36807
- Saturation (molecules) (H1299 cells; H1299 Cells, peptides internalized per cell at saturation): 40,400 ± 5100 molecules
- HillSlope (H1299 cells; Supplementary Table 3): 5.657
- LogIC50 (H1299 cells; Supplementary Table 3): -7.417
- Top (H1299 cells; Supplementary Table 3, molecules per cell): 40400
- stable in human serum for: > 48 h
- IC50 (HBEC cells): do not reach 50% cell viability
